Experimental data from patent US7612096B2, “Methods for treatment, modification and management of radiculopathy using 1-oxo-2-(2,6-dioxopiperidin-3yl)-4-aminoisoindoline” (Celgene Corporation, priority 2004, dated 2009).

How the values were obtained:
TNF-α production [1] = assay: Inhibition of TNF-α production following LPS-stimulation of human PBMC; type: cell-based; conditions: for IC50: human PBMC, LPS-stimulated, read-out: IC50 for inhibiting production of TNF-α following LPS-stimulation of PBMC
Text: (§1) Inhibitions of TNF-α production following LPS-stimulation of human PBMC and human whole blood by 3-(4-amino-1-oxo-1,3-dihydro-isoindol-2-yl)-piperidine-2,6-dione, 4-(amino)-2-(2,6-dioxo-(3-piperidyl))-isoindoline-1,3-dione and thalidomide were investigated in vitro.

TNF-α production [2] = assay: Inhibition of TNF-α production following LPS-stimulation of human whole blood; type: cell-based; conditions: LPS-stimulated, read-out: IC50 for inhibiting production of TNF-α following LPS-stimulation of human whole blood
Text: as §1

IL1β production = assay: LPS-stimulated production of IL1β by PBMC; type: cell-based
IL6 production = assay: LPS-stimulated production of IL6 by PBMC; type: cell-based
IL10 production = assay: LPS-stimulated production of IL10 by PBMC; type: cell-based
Beagle dogs = assay: Cardiovascular and respiratory function in anesthetized dogs; type: in vivo, dog; conditions: for cardiovascular and respiratory changes compared to the vehicle control group: anesthetized Beagle dogs, 2, 10 and 20 mg/kg, infusion through the jugular vein, all doses; for duration of the arterial blood pressure increase / change in arterial blood pressure / deviations in femoral blood flow, respiratory parameters, and Qtc interval: anesthetized Beagle dogs; for duration of the arterial blood pressure increase / change in arterial blood pressure: low dose; for change in arterial blood pressure: i.v. infusion, statistically significant, not seen at higher doses; for deviations in femoral blood flow, respiratory parameters, and Qtc interval: common to both control and treated groups
Text: The effects of 3-(4-amino-1-oxo-1,3-dihydro-isoindol-2-yl)-piperidine-2,6-dione and 4-(amino)-2-(2,6-dioxo-(3-piperidyl))-isoindoline-1,3-dione on cardiovascular and respiratory function were investigated in anesthetized dogs. Two groups of Beagle dogs (2/sex/group) were used. One group received three doses of vehicle only and the other receives three ascending doses of 3-(4-amino-1-oxo-1,3-dihydro-isoindol-2-yl)-piperidine-2,6-dione or 4-(amino)-2-(2,6-dioxo-(3-piperidyl))-isoindoline-1,3-dione (2, 10, and 20 mg/kg). In all cases, doses of 3-(4-amino-1-oxo-1,3-dihydro-isoindol-2-yl)-piperidine-2,6-dione, 4-(amino)-2-(2,6-dioxo-(3-piperidyl))-isoindoline-1,3-dione or vehicle were successively administered via infusion through the jugular vein separated by intervals of at least 30 minutes.

CRPS patients = assay: Clinical study in patients with upper extremity CRPS; type: in vivo, human; conditions: 10 mg continuous oral daily dose
Procedure: Immunomodulatory compounds such as 4-(amino)-2-(2,6-dioxo(3-piperidyl))-isoindoline-1,3-dione and 3-(4-amino-1-oxo-1,3-dihydro-isoindol-2-yl)-piperidine-2,6-dione are administered in an amount of 0.1 to 25 mg per day to patients with pain syndromes for three to six months. A baseline evaluation is performed for the effect of the drug treatment on pain intensity, impact of pain on activities of daily living, and consumption of other pain medications.
In a specific embodiment, clinical studies are performed in pain patients who have upper extremity CRPS that has not responded to conventional physical therapy and has been present for at least one year. In the early course of their diseases, patients have clear evidence of autonomic dysfunction with formal autonomic testing (Quantitative sudomotor axon reflex test (QSART), resting sweat output, and thermography). […] Responses are assessed using standard pain scales, e.g., Numeric Pain Scale Assessment (VAS) for pain, quality of life using the McGill Index and objective signs in clinical examination such as a visible reduction of swelling, sweating, discolorations in skin color, temperature changes, changes in skin, hair and nail growth, and fine motor movements. […]

IC50 (TNF-α production [1])	IC50 (TNF-α production [2])	SMILES	effect on LPS-stimulated production of TNF-α by PBMC (TNF-α production [1])	effect on LPS-stimulated production of IL1β by PBMC (IL1β production)	effect on LPS-stimulated production of IL6 by PBMC (IL6 production)	effect on production of the anti-inflammatory cytokine IL10 (IL10 production)	cardiovascular and respiratory changes compared to the vehicle control group (Beagle dogs)	duration of the arterial blood pressure increase (Beagle dogs)	change in arterial blood pressure (Beagle dogs)	deviations in femoral blood flow, respiratory parameters, and Qtc interval (Beagle dogs)	tolerability (CRPS patients)
~0.1 µM	~0.48 µM	Nc1cccc2c1CN(C1CCC(=O)NC1=O)C2=O (stereo not drawn) [3-(4-amino-1-oxo-1,3-dihydro-isoindol-2-yl)-piperidine-2,6-dione]	dose-dependent inhibition	dose-dependent inhibition	dose-dependent inhibition	increased production	minimal	approximately 15 minutes	small increase	not considered treatment-related	well-tolerated
~0.024 µM	~0.025 µM	Nc1cccc2c1C(=O)N(C1CCC(=O)NC1=O)C2=O (stereo not drawn) [4-(Amino)-2-(2,6-dioxo(3-piperidyl))-isoindoline-1,3-dione]	dose-dependent inhibition	dose-dependent inhibition	dose-dependent inhibition	increased production	minimal	approximately 15 minutes	small increase	not considered treatment-related	
